Source: PubChem BioAssay AID272 (DTP/NCI, 2004)
“And” between values parts separate entries of the source, which are not always exact repeats. Equal entries are not always repeated. Results filed as inconclusive are left out.

Tested on: Lewis lung carcinoma i.m., BDF1 mice, T/C %
Assay: NCI In Vivo Anticancer Drug Screen. Data for tumor model Lewis Lung Carcinoma (intramuscular) in B6D2F1 (BDF1) mice
Method in brief: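 Antitumour activity is assessed in transplanted-tumour mice. Endpoint is survival or tumour size, normalised to vehicle-dosed controls (T/C).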

[1] = endpoint: mean tumor weight (est.), dose: 12.5 mg/kg/injection, schedule: Q01DX011 (ip), vehicle: saline with Tween-80, higher = larger tumour
[2] = endpoint: mean tumor weight (est.), dose: 25.0 mg/kg/injection, schedule: Q01DX011 (ip), vehicle: saline with Tween-80, higher = larger tumour
[3] = endpoint: mean tumor weight (est.), dose: 50.0 mg/kg/injection, schedule: Q01DX011 (ip), vehicle: saline with Tween-80, higher = larger tumour
[4] = endpoint: median survival time, dose: 2.0 mg/kg/injection, schedule: Q01DX011 (ip), vehicle: saline, higher = longer survival
[5] = endpoint: median survival time, dose: 4.0 mg/kg/injection, schedule: Q01DX011 (ip), vehicle: saline, higher = longer survival
[6] = endpoint: median survival time, dose: 8.0 mg/kg/injection, schedule: Q01DX011 (ip), vehicle: saline, higher = longer survival
[7] = endpoint: median survival time, dose: 16.0 mg/kg/injection, schedule: Q01DX011 (ip), vehicle: saline, higher = longer survival

For O=C1CN=C(c2ccc[nH]2)c2cc(Cl)ccc2N1, which T/C (endpoint: mean tumor weight, dose: 6.25 mg/kg/injection, schedule: Q01DX011 (ip), vehicle: Klucel (hydroxypropylcellulose) (HPC), higher = larger tumour) is on record?
Its T/C is 74 % of control.

And the T/C (endpoint: mean tumor weight, dose: 12.5 mg/kg/injection, schedule: Q01DX011 (ip), vehicle: Klucel (hydroxypropylcellulose) (HPC), higher = larger tumour)?
Its T/C is 111 % of control.

And the T/C (endpoint: mean tumor weight, dose: 25.0 mg/kg/injection, schedule: Q01DX011 (ip), vehicle: Klucel (hydroxypropylcellulose) (HPC), higher = larger tumour)?
The T/C was 82 % of control.

What about the T/C (endpoint: mean tumor weight, dose: 50.0 mg/kg/injection, schedule: Q01DX011 (ip), vehicle: Klucel (hydroxypropylcellulose) (HPC), higher = larger tumour) of the same compound?
The T/C was 96 % of control.

And the T/C (endpoint: mean tumor weight, dose: 100.0 mg/kg/injection, schedule: Q01DX011 (ip), vehicle: Klucel (hydroxypropylcellulose) (HPC), higher = larger tumour)?
Its T/C is 95 % of control.

And the T/C (endpoint: median survival time, dose: 6.25 mg/kg/injection, schedule: Q01DX011 (ip), vehicle: Klucel (hydroxypropylcellulose) (HPC), higher = longer survival)?
Its T/C is 97 % of control.

And the T/C (endpoint: median survival time, dose: 12.5 mg/kg/injection, schedule: Q01DX011 (ip), vehicle: Klucel (hydroxypropylcellulose) (HPC), higher = longer survival)?
Its T/C is 100 % of control.

And the T/C (endpoint: median survival time, dose: 25.0 mg/kg/injection, schedule: Q01DX011 (ip), vehicle: Klucel (hydroxypropylcellulose) (HPC), higher = longer survival)?
The T/C was 88 % of control and 111 % of control.

And the T/C (endpoint: median survival time, dose: 50.0 mg/kg/injection, schedule: Q01DX011 (ip), vehicle: Klucel (hydroxypropylcellulose) (HPC), higher = longer survival)?
Its T/C is 102 % of control.

What about the T/C (endpoint: median survival time, dose: 100.0 mg/kg/injection, schedule: Q01DX011 (ip), vehicle: Klucel (hydroxypropylcellulose) (HPC), higher = longer survival) of the same compound?
The T/C was 100 % of control.

With CCCCn1cnc2c(N)ncnc21 as the compound, how does the T/C [1] read?
Its T/C is 81 % of control.

What about the T/C [2] of the same compound?
The T/C was 95 % of control.

And the T/C [3]?
The T/C was 77 % of control.

And the T/C (endpoint: median survival time, dose: 12.5 mg/kg/injection, schedule: Q01DX011 (ip), vehicle: saline with Tween-80, higher = longer survival)?
The T/C was 93 % of control.

What about the T/C (endpoint: median survival time, dose: 25.0 mg/kg/injection, schedule: Q01DX011 (ip), vehicle: saline with Tween-80, higher = longer survival) of the same compound?
The T/C was 97 % of control.

What about the T/C (endpoint: median survival time, dose: 50.0 mg/kg/injection, schedule: Q01DX011 (ip), vehicle: saline with Tween-80, higher = longer survival) of the same compound?
The T/C was 87 % of control.

Which results are given for CCCCCCCCCCCCCCCCCC[n+]1cccc(C(=O)N2CCOCC2)c1?
T/C (endpoint: mean tumor weight (est.), dose: 2.0 mg/kg/injection, schedule: Q01DX011 (ip), vehicle: saline, higher = larger tumour): 82 % of control; T/C (endpoint: mean tumor weight (est.), dose: 4.0 mg/kg/injection, schedule: Q01DX011 (ip), vehicle: saline, higher = larger tumour): 83 % of control; T/C (endpoint: mean tumor weight (est.), dose: 8.0 mg/kg/injection, schedule: Q01DX011 (ip), vehicle: saline, higher = larger tumour): 71 % of control; T/C (endpoint: mean tumor weight (est.), dose: 16.0 mg/kg/injection, schedule: Q01DX011 (ip), vehicle: saline, higher = larger tumour): 64 % of control; T/C [4]: 101 % of control; T/C [5]: 103 % of control; T/C [6]: 105 % of control; T/C [7]: 94 % of control

Which results are given for COC1C(O)C(O)OC(CO)C1O (configuration not stated)?
T/C (endpoint: mean tumor weight (est.), dose: 500.0 mg/kg/injection, schedule: Q01DX011 (ip), vehicle: saline, higher = larger tumour): 83 % of control; T/C (endpoint: mean tumor weight (est.), dose: 1000.0 mg/kg/injection, schedule: Q01DX011 (ip), vehicle: saline, higher = larger tumour): 77 % of control; T/C (endpoint: median survival time, dose: 500.0 mg/kg/injection, schedule: Q01DX011 (ip), vehicle: saline, higher = longer survival): 106 % of control; T/C (endpoint: median survival time, dose: 1000.0 mg/kg/injection, schedule: Q01DX011 (ip), vehicle: saline, higher = longer survival): 112 % of control

CCCCc1ccc(NC(=O)N(CCCl)N=O)cc1 was tested. Which T/C (endpoint: median survival time, dose: 3.0 mg/kg/injection, schedule: Q07DX003 (ip), vehicle: Klucel (hydroxypropylcellulose) (HPC), higher = longer survival) did it give?
The T/C was 112 % of control.

What about the T/C (endpoint: median survival time, dose: 5.0 mg/kg/injection, schedule: Q07DX003 (ip), vehicle: Klucel (hydroxypropylcellulose) (HPC), higher = longer survival) of the same compound?
The T/C was 106 % of control.

What about the T/C (endpoint: median survival time, dose: 14.0 mg/kg/injection, schedule: Q07DX003 (ip), vehicle: Klucel (hydroxypropylcellulose) (HPC), higher = longer survival) of the same compound?
Its T/C is 110 % of control.

What about the T/C (endpoint: median survival time, dose: 23.0 mg/kg/injection, schedule: Q07DX003 (ip), vehicle: Klucel (hydroxypropylcellulose) (HPC), higher = longer survival) of the same compound?
Its T/C is 87 % of control.

With Nc1nc(=O)n(C2OC(CO)C(O)C2O)cc1F (configuration not stated) as the compound, how does the T/C [5] read?
Its T/C is 98 % of control.

What about the T/C [6] of the same compound?
The T/C was 117 % of control.

What about the T/C [7] of the same compound?
The T/C was 98 % of control.

What about the T/C (endpoint: median survival time, dose: 32.0 mg/kg/injection, schedule: Q01DX011 (ip), vehicle: saline, higher = longer survival) of the same compound?
The T/C was 110 % of control.

How did the T/C (endpoint: median survival time, dose: 25.0 mg/kg/injection, schedule: Q01DX011 (ip), vehicle: water, higher = longer survival) turn out when O=C1NC(O)CCN1C1OC(CO)C(O)C1O (configuration not stated) was run?
The T/C was 89 % of control.

And the T/C (endpoint: median survival time, dose: 50.0 mg/kg/injection, schedule: Q01DX011 (ip), vehicle: water, higher = longer survival)?
The T/C was 93 % of control.

And the T/C (endpoint: median survival time, dose: 400.0 mg/kg/injection, schedule: Q01DX011 (ip), vehicle: water, higher = longer survival)?
The T/C was 116 % of control.

What does the source list for CCN(CC)CCOC(=O)c1ccccc1N(c1ccccc1)c1ccccc1?
T/C (endpoint: mean tumor weight (est.), dose: 62.5 mg/kg/injection, schedule: Q01DX011 (ip), vehicle: Klucel (hydroxypropylcellulose) (HPC), higher = larger tumour): 67 % of control; T/C (endpoint: mean tumor weight (est.), dose: 125.0 mg/kg/injection, schedule: Q01DX011 (ip), vehicle: Klucel (hydroxypropylcellulose) (HPC), higher = larger tumour): 59 % of control; T/C (endpoint: median survival time, dose: 62.5 mg/kg/injection, schedule: Q01DX011 (ip), vehicle: Klucel (hydroxypropylcellulose) (HPC), higher = longer survival): 98 % of control

CSC(=S)N/N=C/c1ccccn1 was tested. Which T/C [1] did it give?
The T/C was 67 % of control.

And the T/C [2]?
Its T/C is 92 % of control.

And the T/C [3]?
Its T/C is 50 % of control.

With NC(C(=O)O)C(F)C(=O)O (configuration not stated) as the compound, how does the T/C (endpoint: median survival time, dose: 3.12 mg/kg/injection, schedule: Q01DX011 (ip), vehicle: saline, higher = longer survival) read?
The T/C was 104 % of control.

And the T/C (endpoint: median survival time, dose: 6.25 mg/kg/injection, schedule: Q01DX011 (ip), vehicle: saline, higher = longer survival)?
The T/C was 98 % of control.

And the T/C (endpoint: median survival time, dose: 12.5 mg/kg/injection, schedule: Q01DX011 (ip), vehicle: saline, higher = longer survival)?
Its T/C is 103 % of control.

What does the source list for CC(=O)OC1C(=O)C(O)C(C)OC1O[C@@H]1C[C@@]2(C)[C@@H]3CC=C4[C@@H](C[C@H](O)C(=O)C4(C)C)[C@]3(C)C(=O)C[C@]2(C)[C@H]1[C@@](C)(O)C(=O)/C=C/C(C)(C)O (some centres not stated)?
T/C (endpoint: mean tumor weight, dose: 0.5 mg/kg/injection, schedule: Q01DX011 (ip), vehicle: saline, higher = larger tumour): 41 % of control; T/C (endpoint: mean tumor weight, dose: 1.0 mg/kg/injection, schedule: Q01DX011 (ip), vehicle: saline, higher = larger tumour): 32 % of control; T/C (endpoint: mean tumor weight, dose: 2.0 mg/kg/injection, schedule: Q01DX011 (ip), vehicle: saline, higher = larger tumour): 41 % of control; T/C (endpoint: median survival time, dose: 0.5 mg/kg/injection, schedule: Q01DX011 (ip), vehicle: saline, higher = longer survival): 113 % of control; T/C (endpoint: median survival time, dose: 1.0 mg/kg/injection, schedule: Q01DX011 (ip), vehicle: saline, higher = longer survival): 89 % of control; T/C [4]: 91 % of control

For Nc1nc(Cl)nc2c1ncn2C1CC(O)C(CO)O1 (configuration not stated), which T/C (endpoint: median survival time, dose: 8.0 mg/kg/injection, schedule: Q01DX Z (ip), vehicle: other, higher = longer survival) is on record?
Its T/C is 93 % of control and 95 % of control.

What about the T/C (endpoint: median survival time, dose: 16.0 mg/kg/injection, schedule: Q01DX Z (ip), vehicle: other, higher = longer survival) of the same compound?
Its T/C is 113 % of control.

And the T/C (endpoint: median survival time, dose: 32.0 mg/kg/injection, schedule: Q01DX Z (ip), vehicle: other, higher = longer survival)?
Its T/C is 86 % of control.
